Active and inactive are the calls of the source. The calls are words filed in the database; no cut-off is given here.
Legend:
[1] = target: Hepatocyte growth factor receptor (Homo sapiens) (UniProt P08581); test: Inhibition of c-Met (unknown origin) at 10 uM assessed as residual enzyme activity
[2] = target: Cyclin-dependent kinase 5/CDK5 activator 1 (Homo sapiens) (UniProt Q00535+Q15078); test: Inhibition of CDK5/p35 (unknown origin) at 10 uM assessed as residual enzyme activity; format: protein-complex assay
[3] = target: CDK1/Cyclin A (Homo sapiens) (UniProt P06493+P20248); test: Inhibition of CDK1/Cyclin A (unknown origin) at 10 uM assessed as residual enzyme activity; format: protein-complex assay
Sequence of CDK1/Cyclin A (Homo sapiens) (P06493 whole entry, looked up): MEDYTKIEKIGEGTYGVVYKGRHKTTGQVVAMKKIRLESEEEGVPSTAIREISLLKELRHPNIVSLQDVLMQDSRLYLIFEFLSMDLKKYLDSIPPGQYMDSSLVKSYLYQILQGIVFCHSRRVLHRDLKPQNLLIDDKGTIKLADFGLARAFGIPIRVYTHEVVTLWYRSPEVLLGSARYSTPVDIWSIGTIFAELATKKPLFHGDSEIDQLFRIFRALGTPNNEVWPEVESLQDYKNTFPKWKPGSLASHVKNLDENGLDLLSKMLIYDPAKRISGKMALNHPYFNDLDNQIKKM
Sequence of CDK1/Cyclin A (Homo sapiens) (P20248 whole entry, looked up): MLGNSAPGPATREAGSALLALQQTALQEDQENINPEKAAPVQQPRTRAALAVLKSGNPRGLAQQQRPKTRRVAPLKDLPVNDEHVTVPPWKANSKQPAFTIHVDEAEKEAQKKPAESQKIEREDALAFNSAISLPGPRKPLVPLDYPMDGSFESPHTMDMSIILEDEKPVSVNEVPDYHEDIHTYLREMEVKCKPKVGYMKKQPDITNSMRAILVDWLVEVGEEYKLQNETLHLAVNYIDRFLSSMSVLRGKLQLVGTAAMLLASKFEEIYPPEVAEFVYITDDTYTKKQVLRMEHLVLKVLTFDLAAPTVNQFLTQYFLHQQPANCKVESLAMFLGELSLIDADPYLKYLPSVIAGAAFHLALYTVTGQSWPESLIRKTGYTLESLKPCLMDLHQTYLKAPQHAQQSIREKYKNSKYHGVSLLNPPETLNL

[4] = target: ALK tyrosine kinase receptor (Homo sapiens) (UniProt Q9UM73); test: Inhibition of ALK (unknown origin) at 10 uM assessed as residual enzyme activity
Sequence of ALK tyrosine kinase receptor (Homo sapiens) (Q9UM73 19-1620 limits assumed): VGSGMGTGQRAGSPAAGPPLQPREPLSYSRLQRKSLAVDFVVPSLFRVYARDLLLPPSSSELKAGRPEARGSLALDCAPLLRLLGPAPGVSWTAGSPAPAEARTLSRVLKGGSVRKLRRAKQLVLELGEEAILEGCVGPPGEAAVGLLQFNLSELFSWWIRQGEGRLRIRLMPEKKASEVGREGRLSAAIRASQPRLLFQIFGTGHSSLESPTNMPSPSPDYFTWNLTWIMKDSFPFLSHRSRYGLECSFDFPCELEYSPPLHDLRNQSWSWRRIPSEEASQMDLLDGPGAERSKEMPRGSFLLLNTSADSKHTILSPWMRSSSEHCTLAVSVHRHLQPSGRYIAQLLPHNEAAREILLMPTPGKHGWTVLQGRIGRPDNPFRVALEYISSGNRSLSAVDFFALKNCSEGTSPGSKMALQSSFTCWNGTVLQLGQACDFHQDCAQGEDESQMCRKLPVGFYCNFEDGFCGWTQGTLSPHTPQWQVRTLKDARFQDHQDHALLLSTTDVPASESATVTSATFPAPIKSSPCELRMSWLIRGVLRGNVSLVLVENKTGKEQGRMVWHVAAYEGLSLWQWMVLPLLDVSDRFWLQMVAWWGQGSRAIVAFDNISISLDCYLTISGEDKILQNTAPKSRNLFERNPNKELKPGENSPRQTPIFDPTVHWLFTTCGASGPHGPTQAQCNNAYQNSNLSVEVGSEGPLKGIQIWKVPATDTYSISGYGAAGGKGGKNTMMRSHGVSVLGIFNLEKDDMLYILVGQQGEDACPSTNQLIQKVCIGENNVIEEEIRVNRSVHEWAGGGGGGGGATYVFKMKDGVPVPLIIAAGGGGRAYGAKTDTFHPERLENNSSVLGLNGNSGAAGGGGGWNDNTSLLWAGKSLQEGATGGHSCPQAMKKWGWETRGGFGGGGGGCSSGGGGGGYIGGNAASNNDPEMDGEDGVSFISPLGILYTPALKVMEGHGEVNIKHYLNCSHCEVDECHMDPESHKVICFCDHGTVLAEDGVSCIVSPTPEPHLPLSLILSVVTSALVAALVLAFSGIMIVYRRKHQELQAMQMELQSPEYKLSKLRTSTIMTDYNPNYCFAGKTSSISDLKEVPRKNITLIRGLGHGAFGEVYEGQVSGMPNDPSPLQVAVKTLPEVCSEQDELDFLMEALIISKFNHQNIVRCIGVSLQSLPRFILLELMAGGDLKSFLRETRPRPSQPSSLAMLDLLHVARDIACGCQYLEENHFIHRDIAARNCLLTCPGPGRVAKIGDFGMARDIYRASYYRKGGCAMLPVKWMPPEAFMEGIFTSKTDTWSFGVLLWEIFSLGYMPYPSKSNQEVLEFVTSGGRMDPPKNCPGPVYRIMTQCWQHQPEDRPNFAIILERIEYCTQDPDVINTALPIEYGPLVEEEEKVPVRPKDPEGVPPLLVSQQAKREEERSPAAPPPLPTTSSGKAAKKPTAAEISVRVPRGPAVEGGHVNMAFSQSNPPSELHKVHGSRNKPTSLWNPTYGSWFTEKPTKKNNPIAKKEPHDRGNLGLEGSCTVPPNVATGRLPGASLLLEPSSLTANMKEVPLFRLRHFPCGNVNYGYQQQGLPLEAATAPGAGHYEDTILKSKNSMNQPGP

[5] = target: Receptor-type tyrosine-protein kinase FLT3 (Homo sapiens) (UniProt P36888); test: Inhibition of FLT3 phosphorylation in human MV4-11 cells after 4 hrs by Western blot method; format: cell-based
MV4-11 [6] = test: Induction of apoptosis in human MV4-11 cells assessed as increase in cleaved PARP level at 0.1 to 10 uM after 12 hrs by Western blot method; format: functional, cell-based
[7] = Cytotoxicity against human U87MG cells assessed as cell viability at 1 uM after 24 hrs by WST1 assay; format: functional, U-87MG ATCC; details: U-87 MG, read-out: Activity
MV4-11 [8] = test: Cytotoxicity against human MV4-11 cells assessed as cell viability at 1 uM after 24 hrs by WST1 assay; format: functional; details: MV4-11, 24 h, read-out: Activity
MDA-MB-231 = test: Cytotoxicity against human MDA-MB-231 cells assessed as cell viability at 1 uM after 24 hrs by WST1 assay; format: functional; details: MDA-MB-231, 24 h, read-out: Activity
[9] = Cytotoxicity against rat L6 cells assessed as cell viability at 1 uM after 24 hrs by WST1 assay; format: cell-based; details: read-out: Activity
[10] = Cytotoxicity against mouse NIH/3T3 cells assessed as cell viability at 1 uM after 24 hrs by WST1 assay; format: cell-based, NIH3T3; details: read-out: Activity
[11] = target: Leukocyte tyrosine kinase receptor (Homo sapiens) (UniProt P29376); test: Inhibition of LTK (unknown origin) at 10 uM assessed as residual enzyme activity
[12] = target: Vascular endothelial growth factor receptor 2 (Homo sapiens) (UniProt P35968); test: Inhibition of VEGFR2 (unknown origin) at 10 uM assessed as residual enzyme activity
Sequence of Vascular endothelial growth factor receptor 2 (Homo sapiens) (P35968 whole entry): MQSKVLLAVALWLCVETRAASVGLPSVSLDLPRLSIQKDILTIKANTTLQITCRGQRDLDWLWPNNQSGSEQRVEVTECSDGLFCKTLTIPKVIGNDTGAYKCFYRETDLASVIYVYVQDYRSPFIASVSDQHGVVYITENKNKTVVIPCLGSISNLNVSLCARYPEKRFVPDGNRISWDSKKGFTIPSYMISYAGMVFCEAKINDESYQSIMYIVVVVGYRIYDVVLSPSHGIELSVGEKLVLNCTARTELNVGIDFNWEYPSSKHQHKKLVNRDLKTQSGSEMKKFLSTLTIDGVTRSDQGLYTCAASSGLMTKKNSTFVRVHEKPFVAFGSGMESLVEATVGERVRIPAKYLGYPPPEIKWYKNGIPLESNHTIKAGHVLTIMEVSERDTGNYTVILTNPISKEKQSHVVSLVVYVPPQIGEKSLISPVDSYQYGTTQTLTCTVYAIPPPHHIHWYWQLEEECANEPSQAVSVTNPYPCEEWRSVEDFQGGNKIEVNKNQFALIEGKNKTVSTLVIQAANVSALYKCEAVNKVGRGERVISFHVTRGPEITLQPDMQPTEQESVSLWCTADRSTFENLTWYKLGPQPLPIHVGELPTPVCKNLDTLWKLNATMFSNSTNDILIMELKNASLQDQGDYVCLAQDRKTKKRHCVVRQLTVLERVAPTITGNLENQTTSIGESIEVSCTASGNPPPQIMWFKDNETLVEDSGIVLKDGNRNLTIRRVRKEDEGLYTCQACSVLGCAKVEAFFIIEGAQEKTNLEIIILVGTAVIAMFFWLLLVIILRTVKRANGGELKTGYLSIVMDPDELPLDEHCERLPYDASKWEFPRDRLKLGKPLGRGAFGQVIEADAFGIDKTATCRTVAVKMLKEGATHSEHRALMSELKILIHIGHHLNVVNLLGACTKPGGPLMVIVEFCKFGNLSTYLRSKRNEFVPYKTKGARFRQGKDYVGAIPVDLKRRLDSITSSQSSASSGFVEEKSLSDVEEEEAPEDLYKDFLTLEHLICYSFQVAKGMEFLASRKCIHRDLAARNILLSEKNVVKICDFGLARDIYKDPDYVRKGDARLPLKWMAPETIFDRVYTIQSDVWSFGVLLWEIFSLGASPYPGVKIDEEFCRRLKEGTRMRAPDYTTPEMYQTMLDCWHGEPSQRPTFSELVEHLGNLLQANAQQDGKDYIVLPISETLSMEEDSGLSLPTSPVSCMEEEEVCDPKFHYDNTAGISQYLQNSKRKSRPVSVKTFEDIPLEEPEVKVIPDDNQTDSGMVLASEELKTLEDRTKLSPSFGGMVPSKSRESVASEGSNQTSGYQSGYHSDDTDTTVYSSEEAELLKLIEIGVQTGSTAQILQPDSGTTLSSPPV

[13] = target: Proto-oncogene tyrosine-protein kinase receptor Ret (Homo sapiens) (UniProt P07949); test: Inhibition of RET (unknown origin) at 10 uM assessed as residual enzyme activity
[14] = target: Serine/threonine-protein kinase Nek4 (Homo sapiens) (UniProt P51957); test: Inhibition of STK2 (unknown origin) at 10 uM assessed as residual enzyme activity
[15] = target: Protein kinase C alpha type (Homo sapiens) (UniProt P17252); test: Inhibition of PKCalpha (unknown origin) at 10 uM assessed as residual enzyme activity
[16] = target: Serine/threonine-protein kinase PAK 1 (Homo sapiens) (UniProt Q13153); test: Inhibition of PAK1 (unknown origin) at 10 uM assessed as residual enzyme activity
Sequence of Serine/threonine-protein kinase PAK 1 (Homo sapiens) (Q13153 whole entry): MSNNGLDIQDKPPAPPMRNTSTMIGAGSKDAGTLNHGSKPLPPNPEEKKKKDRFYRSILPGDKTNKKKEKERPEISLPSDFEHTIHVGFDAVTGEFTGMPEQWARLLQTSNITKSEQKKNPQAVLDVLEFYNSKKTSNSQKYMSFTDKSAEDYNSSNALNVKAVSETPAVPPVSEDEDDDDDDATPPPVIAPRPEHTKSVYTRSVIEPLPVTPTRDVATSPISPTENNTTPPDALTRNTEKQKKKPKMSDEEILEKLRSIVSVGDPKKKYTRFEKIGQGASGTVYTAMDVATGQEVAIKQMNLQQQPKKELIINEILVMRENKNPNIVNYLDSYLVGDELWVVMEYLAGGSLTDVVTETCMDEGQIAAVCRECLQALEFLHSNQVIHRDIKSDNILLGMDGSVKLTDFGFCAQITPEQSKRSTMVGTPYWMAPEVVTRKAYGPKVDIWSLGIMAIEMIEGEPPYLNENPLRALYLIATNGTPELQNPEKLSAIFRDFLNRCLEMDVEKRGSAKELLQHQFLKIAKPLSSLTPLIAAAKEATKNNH

[17] = target: Mitogen-activated protein kinase 11 (Homo sapiens) (UniProt Q15759); test: Inhibition of P38beta (unknown origin) at 10 uM assessed as residual enzyme activity
[18] = target: Mitogen-activated protein kinase 14 (Homo sapiens) (UniProt Q16539); test: Inhibition of P38alpha (unknown origin) at 10 uM assessed as residual enzyme activity

## COc1ccc(-c2n[nH]c3ncc(-c4ccc(Cl)cc4N)cc23)cc1
[1]
  Activity: 118%
[2]
  Activity: 87.2%
[3]
  Activity: 97.4%
[4]
  Activity: 96.5%
[5]
  inhibition: Active
MV4-11 [6]
  Activity: Dose-dependent effect
[7]
  viability at 1 µM: 89%
MV4-11 [8]
  viability at 1 µM: 30%
MDA-MB-231
  viability at 1 µM: 84%
[9]
  viability at 24 h, 1 µM: 107%
[10]
  viability at 24 h, 1 µM: 106%
[11]
  Activity: 92.9%
[12]
  Activity: 98.6%
[13]
  Activity: 83.3%
[14]
  Activity: 85.8%
[15]
  Activity: 84.5%
[16]
  Activity: 98.9%
[17]
  Activity: 97.8%
[18]
  Activity: 110%

— ChEMBL document CHEMBL3217737, “Discovery of a highly selective FLT3 kinase inhibitor from phenotypic cell viability profiling” (Medchemcomm, 2013)
